From ChEMBL document CHEMBL1131691, “Design and synthesis of simplified sordaricin derivatives as inhibitors of fungal protein synthesis” (Bioorg Med Chem Lett, 1999)
pIC50: −log10 of the molar value.

Key:
Candida albicans [1] = assay: Minimum inhibitory concentration Candida albicans 2005E cell growth; assay type: functional
Candida albicans [2] = assay: Inhibitory concentration against Candida albicans 2005E protein synthesis; assay type: functional, organism-based

## CC(C)C1=CC2C[C@]3(C=O)C4CCC(C)C4C[C@]2(CO)[C@]13C(=O)O (some centres not stated) [SORDARICIN]
Candida albicans [1]
  MIC: > 376 µM
Candida albicans [2]
  pIC50: 6.30
